Measured values taken from article PMC3224947, “Inhibition of HIV-1 integrase nuclear import and replication by a peptide bearing integrase putative nuclear localization signal” (Retrovirology, 2009).

Tests used:
[1] = test system: COS-7 cells (nuclear import); experiment: Microinjection of FITC-BSA conjugates into COS-7 cells, nuclear import; assay type: cell-based; settings: 37°C, 2 h after injection, fluorescence microscopy (Fig. 3A-E)
Text: Nuclear import transport substrates
Proteins and peptides used in this work as transport substrates were covalently attached to either fluorescein isothiocyanate-labeled bovine serum albumin (FITC-BSA) or biotinylated BSA (Bb) molecules (Sigma). Sulfosuccinimidyl-4-(N-maleimidomethyl) cyclohexane-1-carboxylate (sulfo-SMCC) was used as the cross-linker to give FITC-BSA-protein/peptide and Bb-protein/peptide conjugates, as described previously.
Microinjection of fluorescently labeled transport substrates
FITC-BSA-IN, FITC-BSA-180-IN, FITC-BSA-152-IN, FITC-BSA-NLS-IN, as well as unlabeled FITC-BSA, were microinjected into the cytoplasm of cultured COS-7 cells as described previously. The CompInject AIS2 automated microinjection system (Cell Biology Trading, Hamburg, Germany) was used following the method developed by Graessmann and Graessman. Cultured mammalian cells were incubated at 37°C for 2 h after injection and observed by fluorescence microscopy.

[2] = test system: HIV-1 IN (nuclear import); experiment: Immunostaining of intracellular localization of IN in stably transfected, cell-cycle arrested HeLaP4/IN-expressing cells; assay type: cell-based; settings: aphidicolin 5 μg/ml arrested HeLaP4/IN cells; 150 μM peptide, 6 h; confocal microscopy (Fig. 1)
Protocol: Localization studies of transfected IN in cultured cells by immunostaining
HeLaP4/IN-expressing cells were grown on chamber slides (Nunc). […] Cells were fixed and immunostained essentially as described previously with several modifications. Briefly, after fixation cells were blocked with 5% (w/v) BSA (IgG free) (Jackson) in PBS for 60 min. […] Cells were washed five times with PBS + 0.05% (v/v) Tween 20. Then the cells were incubated with a second antibody, Cy3-conjugated anti-rabbit antibody (Jackson) (1:200) at room temperature for 60 min followed by five washes with PBS + 0.05% Tween 20. For detection of DNA, cells were stained with DAPI according to the manufacturer's protocol. The slides were prepared with mounting media (Bio-Rad) and immunofluorescent cells were detected with a confocal microscope.

[3] = test system: HIV-1 IN (nuclear import); experiment: Immunostaining of IN localization in HIV-1-infected HeLaP4 cells; assay type: cell-based; settings: aphidicolin-arrested HeLaP4, 150 μM peptide 2 h, then HIV-1 MOI 25, fixed 10 h PI (Fig. 7B)
Protocol: Localization studies of IN in HIV-1-infected cultured cells by immunostaining
HeLaP4 cells were grown on chamber slides. […] After incubation with the peptides, cells were infected with wild-type HIV-1 at a multiplicity of infection (MOI) of 25. Cells were fixed and stained as described above with the following modifications: fixation was performed at 10 h PI, the first antibody was used at a dilution of 1:50, the second antibody at a dilution of 1:100.

[4] = test system: HIV-1 in TZM-bl cells; experiment: MAGI assay, HIV-1 infection of TZM-bl cells (β-galactosidase reporter); assay type: cell-based; settings: TZM-bl cells (Fig. 9A, B); dividing/non-dividing not distinguished
Protocol: HIV-1 titration by multinuclear activation of a galactosidase indicator (MAGI) assay
Quantitative titration of HIV-1 was carried out using the MAGI assay, as described previously. Briefly, TZM-b1 cells were grown in 96-well plates at 10^4 cells/well and incubated for 12 h at 37°C. Peptides were then added and after an additional 2 h of incubation, the cells were infected with 50 μl of serially diluted HIV-1. To obtain cell-cycle arrested cells, 5 μg/ml of aphidicolin was added 2 h before the experiment. Cultured cells were fixed 2 days PI and β-galactosidase was estimated. Blue cells were counted under a light microscope at 200× magnification.

[5] = test system: HIV-1 replication in Sup-T1 cells; experiment: Time-of-addition assay, viral p24 production in Sup-T1 cells; assay type: cell-based; settings: non-active peptides, NLS-IN and Pen at 62.5 μM in time-of-addition; sentence cites Fig. 9 as a whole
Protocol: Sup-T1 cells were infected with wild-type HIV-1 at a MOI of 2, and the test compounds were added at different time points after infection (0, 2, 4,..., 24 h). Viral p24 production was determined at 48 h PI [67]. Dextran sulfate was tested at 20 μM, AZT at 2 μM, NLS-IN-Pen, NLS-IN and Pen at 62.5 μM, LEDGF 402-411 at 12.5 μM [41].

[6] = test system: IN-importin α complex; experiment: Co-immunoprecipitation of IN and importin α from HIV-1-infected cells; settings: HIV-1-infected H9 lymphocytes, 150 μM peptide 2 h prior to infection, harvested 10 h PI (Fig. 7A)

Substance | nuclear import after microinjection [1] | nuclear import / intracellular localization of IN [2] | intranuclear IN in infected cells [3] | HIV-1 infection inhibition [4] | inhibition of HIV-1 (Fig. 9) [5] | IN-importin α interaction (co-IP) [6]
FITC-BSA: fluorescein isothiocyanate-labeled bovine serum albumin | no nuclear import was observed | – | – | – | – | –
RQIKIWFQNRRMKWKK [Pen] | – | did not have any effect on nuclear import of IN | some intranuclear fluorescently labeled IN could be observed | no inhibition of HIV-1 infection | Inhibition was not observed | neither the SV40-mut-NLS-Pen (or a scrambled NLS-IN [23], not shown) nor the Pen peptide itself promoted dissociation of the IN-importin α complex
